Broadly, the IC50 is the point on the concentration scale where inhibition reaches its midpoint.

One test relates to SCLC strain SHP-77. Briefly: MTT assay for cell survival, SCLC SHP-77 in vitro. Particulars: ED50 for killing of SCLC strain SHP-77 in vitro, 4 days, 0 = no detectable activity, read-out: SCLC SHP-77 IC50. In kind it is cell-based, human. On the technique in general: Tetrazolium dyes change colour on reduction, which living cells bring about.
Take `O=C(N[C@H]1CN2CCC1CC2)C(Cc1ccc(OCc2c(Cl)cccc2Cl)cc1)NC(=O)C(c1ccccc1)C1CCCCC1` (single isomer, unassigned) [M-1548 #1]: the IC50 was determined as 4 µM.

In the case of `O=C(N[C@H]1CN2CCC1CC2)C(Cc1ccc(OCc2c(Cl)cccc2Cl)cc1)NC(=O)C(c1ccccc1)C1CCCCC1` (single isomer, unassigned) [M-1548 #2], the IC50 turned out to be 13 µM.

As to `CC1(C)CC(NC(=O)C(NC(=O)c2ccccn2)C2Cc3ccccc3C2)CC(C)(C)N1` (stereo not drawn) [Analog M-1354, Pic-Igl-Atmp], the IC50 is more than 60 µM.

As to `CC1(C)CC(NC(=O)C(NC(=O)c2ccc(B(O)O)cc2)C2Cc3ccccc3C2)CC(C)(C)N1` (stereo not drawn) [Analog M-1374, Bbz-Igl-Atmp], the IC50 is more than 60 µM.

Take `COC(=O)CN1C(C)CN(C(=O)C(Cc2ccc(F)cc2)NC(=O)C=Cc2c(F)c(F)c(F)c(F)c2F)CC1C` (stereo not drawn) [Analog M-1432, F5c-PFF-Dmmp]: the IC50 amounted to 18 µM.

For `CC1(C)CC(NC(=O)C(Cc2ccc(OCc3c(Cl)cccc3Cl)cc2)NC(=O)CCCCC2SCC3NC(=O)NC32)CC(C)(C)N1` (stereo not drawn) [Analog M-1436, Biot-OC2Y-Atmp], the IC50 was more than 60 µM.

For the compound `CC1(C)CC(NC(=O)C(Cc2ccc(C#N)cc2)NC(=O)CCCc2c[nH]c3ccccc23)CC(C)(C)N1` (stereo not drawn) [Analog M-1476, 3Ibu-PCNF-Atmp], the IC50 was more than 60 µM.

On to `CCCCCCC(O)CC=CCCCCCCCC(=O)NC(Cc1ccc(C#N)cc1)C(=O)NC1CC(C)(C)NC(C)(C)C1` (stereo not drawn) [Analog M-1478, Rio-PCNF-Atmp], for which the IC50 is 14 µM.

On to `CC1(C)CC(NC(=O)C(Cc2ccc(C#N)cc2)NC(=O)COc2c(F)c(F)c(F)c(F)c2F)CC(C)(C)N1` (stereo not drawn) [Analog M-1488, F5po-PCNF-Atmp], for which the IC50 is more than 60 µM.

On to `CC1(C)CC(NC(=O)C(Cc2ccc(C#N)cc2)NC(=O)c2c(F)c(F)c(F)c(F)c2F)CC(C)(C)N1` (stereo not drawn) [Analog M-1490, F5bz-PCNF-Atmp], for which the IC50 was more than 60 µM.

With `CC1(C)CC(NC(=O)[C@H](Cc2ccc(C#N)cc2)NC(=O)CCCc2ccc(N(CCCl)CCCl)cc2)CC(C)(C)N1` [Analog M-1500, Chl-PCNF-Atmp], the IC50 stood at 25 µM.

Turning to `CC1(C)CC(NC(=O)C(Cc2ccc(C#N)cc2)NC(=O)C=Cc2cc(F)cc(F)c2F)CC(C)(C)N1` (stereo not drawn) [Analog M-1504, F3c-PCNF-Atmp], the IC50 was more than 60 µM.

Turning to `Cc1ccc(CSC(C)(C)C(NC(=O)C(C2CCCCC2)C2CCCCC2)C(=O)NC2CC(C)(C)NC(C)(C)C2)cc1` (stereo not drawn) [Analog M-1514, Dca-Pen(Mbzl)-Atmp], the IC50 turned out to be 7.3 µM.

On to `CC1(C)CC(NC(=O)[C@H](Cc2ccc(C#N)cc2)NC(=O)C(C2CCCCC2)C2CCCCC2)CC(C)(C)N1` [Analog M-1516, Dca-PCNF-Atmp], for which the 50% inhibitory concentration (IC50) is 11 µM.

As to `CC1(C)CC(NC(=O)[C@H](Cc2ccc(C#N)cc2)NC(=O)c2cnccn2)CC(C)(C)N1` [Analog M-1524, 2Pyz-PCNF-Atmp], the IC50 was more than 60 µM.

Take `O=C(/C=C/c1c(F)c(F)c(F)c(F)c1F)N[C@@H](Cc1ccc(OCc2c(Cl)cccc2Cl)cc1)C(=O)N1CCN(C/C=C/c2ccccc2)CC1` [Analog M-1564, F5c-OC2Y-tCip]: the IC50 came out at 4 µM.

For the compound `CC1(C)CC(NC(=O)[C@H](Cc2ccc(OCc3c(Cl)cccc3Cl)cc2)NC(=O)c2ccc(N)nc2)CC(C)(C)N1` [Analog M-1596, 6Ani-OC2Y-Atmp], the IC50 was more than 60 µM.

Consider `O=C(/C=C/c1c(F)c(F)c(F)c(F)c1F)N[C@@H](Cc1ccc(OCc2c(Cl)cccc2Cl)cc1)C(=O)N1CCCN(Cc2ccccc2)CC1` [Analog M-1606, F5c-OC2Y-Bhp], for which the IC50 worked out at 17 µM.

Turning to `CC(=O)Nc1nc(C)c(S(=O)(=O)N[C@@H](Cc2ccc(OCc3c(Cl)cccc3Cl)cc2)C(=O)NC2CC(C)(C)NC(C)(C)C2)s1` [Analog M-1628, Amts-OC2Y-Atmp], the IC50 was 45 µM.

In the case of `O=C(/C=C/c1c(F)c(F)c(F)c(F)c1F)N[C@@H](Cc1ccc(OCc2c(Cl)cccc2Cl)cc1)C(=O)NCCCn1ccnc1` [Analog M-1642, F5c-OC2Y-Apia], the IC50 amounted to 42 µM.

With `CC1(C)CC(NC(=O)C(Cc2ccc(OCc3c(Cl)cccc3Cl)cc2)NC(=O)C=Cc2ccccc2Cl)CC(C)(C)N1` (stereo not drawn) [Analog M-1652, 2Ccn-OC2Y-Atmp], the IC50 stood at 4.1 µM.

For the compound `O=C(N[C@@H](Cc1ccc(OCc2c(Cl)cccc2Cl)cc1)C(=O)N1CCN(C/C=C/c2ccccc2)CC1)C(=Cc1ccccc1)c1ccccc1` [Analog M-1654, Pcn-OC2Y-tCip], the IC50 is more than 60 µM.

Turning to `O=C(CCCC[C@@H]1SC[C@@H]2NC(=O)N[C@@H]21)N[C@@H](Cc1ccc(OCc2c(Cl)cccc2Cl)cc1)C(=O)N1CCN(C/C=C/c2ccccc2)CC1` [Analog M-1656, Biot-OC2Y-tCip], the IC50 is 5.5 µM.

Regarding `CN1CCN(CCCNC(=O)[C@H](Cc2ccc(OCc3c(Cl)cccc3Cl)cc2)NC(=O)C(=Cc2ccccc2)c2ccccc2)CC1` [Analog M-1658, Pcn-OC2Y-Amp], the half-inhibitory concentration (IC50) amounted to 10 µM.

Regarding `O=C(N[C@@H](Cc1ccc(OCc2c(Cl)cccc2Cl)cc1)C(=O)NC1CCN(Cc2ccccc2)CC1)C(=Cc1ccccc1)c1ccccc1` [Analog M-1660, Pcn-OC2Y-Abzp], the IC50 came out at 31 µM.

Staying with this test, now noted: ED50 for killing of SCLC strain SHP-77 in vitro, 4 days, 0 = no detectable activity, read-out: SHP-77 In vitro IC50.
With `CC1(C)CC(NC(=O)C(Cc2ccc(OP(=O)(O)OCc3ccccc3)cc2)NC(=O)C=Cc2c(F)c(F)c(F)c(F)c2F)CC(C)(C)N1` (stereo not drawn) [Analog M-1080, F5c-OBPY-Atmp], the IC50 was more than 60 µM.

For `CC1(C)CC(NC(=O)C(Cc2c[nH]c3ccccc23)NC(=O)C(N)CCC(=O)O)CC(C)(C)N1` (stereo not drawn) [Analog M-1120, Glu-Trp-Atmp], the IC50 is more than 60 µM.

As for `CC1(C)CC(NC(=O)C(Cc2ccc(F)cc2)NC(=O)C=Cc2c(F)c(F)c(F)c(F)c2F)CC(C)(C)N1` (stereo not drawn) [Analog M-1140, F5c-PFF-Atmp], the IC50 is 15 µM.

As for `CC1(C)CC(NC(=O)C(Cc2ccc(I)cc2)NC(=O)C=Cc2c(F)c(F)c(F)c(F)c2F)CC(C)(C)N1` (stereo not drawn) [Analog M-1142, F5c-PIF-Atmp], the IC50 came to 7.2 µM.

Consider `CC1(C)CC(NC(=O)C(Cc2ccc(C(F)(F)F)cc2)NC(=O)C=Cc2c(F)c(F)c(F)c(F)c2F)CC(C)(C)N1` (stereo not drawn) [Analog M-1146, F5c-F3MF-Atmp], for which the IC50 was 12 µM.

For `CN(C(=O)C=Cc1c(F)c(F)c(F)c(F)c1F)C(Cc1ccccc1)C(=O)NC1CC(C)(C)NC(C)(C)C1` (stereo not drawn) [Analog M-1148, F5c-NMF-Atmp], the IC50 was 15.5 µM.

Consider `CC1(C)CC(NC(=O)C(NC(=O)C=Cc2c(F)c(F)c(F)c(F)c2F)C(c2ccccc2)c2ccccc2)CC(C)(C)N1` (stereo not drawn) [Analog M-1150, F5c-Dip-Atmp], for which the IC50 was 5 µM.

Turning to `CC1(C)CC(NC(=O)C(Cc2ccc(F)cc2)NC(=O)C=Cc2ccoc2)CC(C)(C)N1` (stereo not drawn) [Analog M-1152, 3-Fa-PFF-Atmp], the IC50 is more than 60 µM.

In the case of `CN1CCN(C(=O)C(Cc2ccc(F)cc2)NC(=O)C=Cc2c(F)c(F)c(F)c(F)c2F)CC1` (stereo not drawn) [Analog M-1158, F5c-PFF-Mpz], the IC50 was found to be 28 µM.

On to `CC1CN(C(=O)C(Cc2ccc(F)cc2)NC(=O)C=Cc2c(F)c(F)c(F)c(F)c2F)CC(C)N1` (stereo not drawn) [Analog M-1160, F5c-PFF-Dmpz], for which the IC50 is 24 µM.

For `O=C(C=Cc1c(F)c(F)c(F)c(F)c1F)NC(Cc1ccc(F)cc1)C(=O)N1CCN(c2ncccn2)CC1` (stereo not drawn) [Analog M-1162, F5c-PFF-Pmpz], the IC50 is 15 µM.

As for `O=C(C=Cc1c(F)c(F)c(F)c(F)c1F)NC(Cc1ccc(F)cc1)C(=O)N1CCN(c2ccccn2)CC1` (stereo not drawn) [Analog M-1164, F5c-PFF-Pypz], the IC50 was 14 µM.

In the case of `CC1(C)CC(NC(=O)C(CCc2ccccc2)NC(=O)C=Cc2c(F)c(F)c(F)c(F)c2F)CC(C)(C)N1` (stereo not drawn) [Analog M-1176, F5c-hPhe-Atmp], the IC50 was 14 µM.

Turning to `CC1(C)CC(NC(=O)C(Cc2ccccc2)NC(=O)C=Cc2c(F)c(F)c(F)c(F)c2F)CC(C)(C)N1` (stereo not drawn) [Analog M-1178, F5c-Phe-Atmp], the IC50 worked out at 15 µM.

In the case of `O=C(C=Cc1c(F)c(F)c(F)c(F)c1F)NC(Cc1c(F)c(F)c(F)c(F)c1F)C(=O)NC1CCN(Cc2ccccc2)CC1` (stereo not drawn) [Analog M-1182, F5c-F5F-Abzp], the IC50 came to 19.5 µM.

As for `CC1CN(C(=O)C(Cc2c(F)c(F)c(F)c(F)c2F)NC(=O)C=Cc2c(F)c(F)c(F)c(F)c2F)CC(C)N1` (stereo not drawn) [Analog M-1186, F5c-F5F-Dmpz], the IC50 was determined as 11 µM.

On to `O=C(C=Cc1c(F)c(F)c(F)c(F)c1F)NC(Cc1ccc(F)cc1)C(=O)N1CCN(C(c2ccccc2)c2ccc(Cl)cc2)CC1` (stereo not drawn) [Analog M-1202, F5c-PFF-Cbp], for which the IC50 was 30 µM.

As to `O=C(C=Cc1cccnc1)NC(Cc1ccc2ccccc2c1)C(=O)N1CCN(C(c2ccccc2)c2ccc(Cl)cc2)CC1` (stereo not drawn) [Analog M-1204, Pya-Nal-Cbp], the IC50 worked out at 7.5 µM.

As to `O=C(C=Cc1c(F)c(F)c(F)c(F)c1F)NC(Cc1ccc(F)cc1)C(=O)N1CCN(c2ccc(Cl)cc2)CC1` (stereo not drawn) [Analog M-1208, F5c-PFF-Cpp], the IC50 was 30 µM.

Regarding `O=C(C=Cc1cccnc1)NC(Cc1ccc(F)cc1)C(=O)N1CCN(c2ccc(Cl)cc2)CC1` (stereo not drawn) [Analog M-1212, Pya-PFF-Cpp], the IC50 is 10 µM.

As for `O=C(C=Cc1c(F)c(F)c(F)c(F)c1F)NC1(C(=O)N(Cc2ccccn2)Cc2ccccn2)Cc2ccccc2C1` [Analog M-1218, F5c-Aic-Dpic], the IC50 is 14 µM.

With `O=C(C=Cc1c(F)c(F)c(F)c(F)c1F)NC(Cc1ccc(I)cc1)C(=O)N1CCN(c2ccccn2)CC1` (stereo not drawn) [Analog M-1248, F5c-PIF-Pypz], the IC50 is 13 µM.

On to `O=C(C=Cc1c(F)c(F)c(F)c(F)c1F)NC(Cc1ccc2ccccc2c1)C(=O)N1CCC(N2CCCCC2)CC1` (stereo not drawn) [Analog M-1250, F5c-Nal-Pipp], for which the IC50 stood at 7.6 µM.

With `O=C(C=Cc1cc(C(F)(F)F)cc(C(F)(F)F)c1)NC(Cc1ccc(I)cc1)C(=O)N1CCN(c2ccccn2)CC1` (stereo not drawn) [Analog M-1252, Tf2c-PIF-Pypz], the IC50 was more than 60 µM.

On to `CC1CN(C(=O)C(Cc2ccc(I)cc2)NC(=O)C=Cc2c(F)c(F)c(F)c(F)c2F)CC(C)N1` (stereo not drawn) [Analog M-1254, F5c-PIF-Dmpz], for which the IC50 was determined as 10 µM.

In the case of `O=C(C=Cc1c(F)c(F)c(F)c(F)c1F)NC(Cc1ccc(I)cc1)C(=O)N(Cc1ccccn1)Cc1ccccn1` (stereo not drawn) [Analog M-1256, F5c-PIF-Dpic], the IC50 is 13 µM.

The values above are taken from patent publication US7858349B2, “Anti-cancer compounds” (The Regents of the University of Colorado, priority 1999, dated 2010).
